Results: patent publication US7368126B2, “Controlled release depot formulations” (priority 2002, dated 2008)
Structures can show the parent of a compound that is named as a salt.

Key:
[1] = cited from earlier work
[2] = Solubility in water; type: physicochemical; settings: DI water

Question: Which “reported solubility in water” value [1] does the source give for `CC(=O)OCC(COC(C)=O)OC(C)=O` [triacetin] here?
Answer: Its value is 7.17 grams in 100 ml of water.

Question: With `CCCCN1CCCCC1C(=O)Nc1c(C)cccc1C` (centres unmarked) [Bupivacaine hydrochloride] as the compound, how does the “concentration in deionized water at saturation” value [2] read?
Answer: Its value is 40000 µg/mL.
